Tested on: cells
Test: label-free cell assay by optical interference phase microscope
Type: cell-based
Settings: for change in measurement values (phase) depending on concentration, by time: dosed in different concentration, measured by time (FIG. 5)
Excerpt: FIG. 4 is a view showing an example of an image of cells photographed by an optical interference phase microscope beneath the transparent medium of the high-throughput label-free cell assay system.
FIG. 5 is a view showing an example of a measurement value by time in the high-throughput label-free cell assay system in a case that picolinic acid and histamine are separately given to cells in different concentration.

Compound	change in measurement values (phase) depending on concentration, by time	number of observed cells in optical interference phase image (half an hour after dosing, untreated cells showed no change after 30 minutes)
NCCc1c[nH]cn1 [histamine]	remarkable changes in measurement values depending on concentration were observed	
O=C(O)c1ccccn1 [picolinic acid]	remarkable changes in measurement values depending on concentration were observed	remarkably reduced
